Patent publication US7799792B2, “Metabotropic glutamate receptor oxadiazole ligands and their use as potentiators 841” (AstraZeneca AB, priority 2007, dated 2010)
pEC50: −log10 of the molar value. In brackets after ≈: the same amount, converted by molar mass.

What was measured:
human mGluR2 receptor = biological target: T1, human mGluR2 receptor (Homo sapiens, UniProt Q14416); experiment: [35S]-GTPγS binding assay of mGluR2 receptor activation (allosteric activator activity); assay type: biochemical; conditions: membranes from CHO cells stably expressing human mGluR2; 1 μM glutamate; read-out: GTPgS EC50
T1 construct: expressed in transfected cells; host or cells: CHO cells, stably transfected; membranes
T1 sequence (Q14416 19-872): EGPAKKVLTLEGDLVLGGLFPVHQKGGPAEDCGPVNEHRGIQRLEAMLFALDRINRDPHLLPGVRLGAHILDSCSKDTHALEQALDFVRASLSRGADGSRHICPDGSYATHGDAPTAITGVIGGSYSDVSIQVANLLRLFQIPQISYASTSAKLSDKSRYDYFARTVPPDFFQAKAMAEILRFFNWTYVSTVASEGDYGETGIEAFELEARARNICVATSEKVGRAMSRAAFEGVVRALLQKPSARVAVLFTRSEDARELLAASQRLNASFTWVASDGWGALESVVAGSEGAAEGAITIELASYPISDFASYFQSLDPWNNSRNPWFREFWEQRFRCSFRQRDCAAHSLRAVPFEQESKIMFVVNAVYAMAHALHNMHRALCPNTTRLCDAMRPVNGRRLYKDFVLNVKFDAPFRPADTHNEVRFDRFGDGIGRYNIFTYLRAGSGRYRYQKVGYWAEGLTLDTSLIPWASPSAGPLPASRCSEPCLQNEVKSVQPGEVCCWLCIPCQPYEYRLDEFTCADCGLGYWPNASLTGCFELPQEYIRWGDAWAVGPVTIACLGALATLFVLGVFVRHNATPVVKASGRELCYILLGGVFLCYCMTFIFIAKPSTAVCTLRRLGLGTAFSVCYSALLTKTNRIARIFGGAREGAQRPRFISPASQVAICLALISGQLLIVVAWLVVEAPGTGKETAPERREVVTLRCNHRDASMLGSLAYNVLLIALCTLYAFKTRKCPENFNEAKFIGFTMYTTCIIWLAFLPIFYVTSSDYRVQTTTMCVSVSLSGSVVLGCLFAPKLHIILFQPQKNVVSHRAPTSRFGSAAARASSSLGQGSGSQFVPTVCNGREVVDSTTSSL
Experimental: A [^35S]-GTPγS binding assay was used to functionally assay mGluR2 receptor activation. The allosteric activator activity of compounds at the human mGluR2 receptor were measured using a [^35S]-GTPγS binding assay with membranes prepared from CHO cells which stably express the human mGluR2. The assay is based upon the principle that agonists bind to G-protein coupled receptors to stimulate GDP-GTP exchange at the G-protein. Since [^35S]-GTPγS is a non-hydrolyzable GTP analog, it can be used to provide an index of GDP-GTP exchange and, thus, receptor activation. The GTPγS binding assay therefore provides a quantitative measure of receptor activation.
Membranes were prepared from CHO cells stably transfected with human mGluR2. Membranes (30 μg protein) were incubated with test compound (3 nM to 300 μM) for 15 minutes at room temperature prior to the addition of 1 μM glutamate, and incubated for 30 min at 30° C. in 500 μl assay buffer (20 mM HEPES, 100 mM NaCl, 10 mM MgCl2), containing 30 μM GDP and 0.1 nM [^35S]-GTPγS (1250 Ci/mmol). Reactions were carried out in triplicate in 2 ml polypropylene 96-well plates. Reactions were terminated by vacuum filtration using a Packard 96-well harvester and Unifilter-96, GF/B filter microplates. The filter plates were washed 4×1.5 ml with ice-cold wash buffer (10 mM sodium phosphate buffer, pH 7.4). The filter plates were dried and 35 μl of scintillation fluid (Microscint 20) was added to each well. The amount of radioactivity bound was determined by counting plates on the Packard TopCount. Data was analyzed using GraphPad Prism, and EC50 and Emax values (relative to the maximum glutamate effect) were calculated using non-linear regression.

[1] = Aqueous solubility in pH 7.4 phosphate buffer; assay type: physicochemical; conditions: thermodynamic from solid, equilibration 24 h at 25° C., read-out: Aq. solubility
Experimental: Solubility was determined in pH 7.4 phosphate buffer after equilibration for 24 h at 25° C. and HPLC-UV and LC-MSMS were used for quantitation.

SMILES | pEC50 (human mGluR2 receptor) | solubility at 24 h [1]
O=C1c2c(Cl)cc(-c3noc(CN4CCNCC4)n3)cc2CN1Cc1ccc(OC(F)(F)F)cc1 [Example 1, 7-Chloro-5-(5-piperazin-1-ylmethyl-[1,2,4]oxadiazol-3-yl)-2-(4-trifluoromethoxybenzyl)-2,3-dihydroisoindol-1-one] | 6.65 | 139 µM (≈ 70.6 µg/mL)
O=C1c2c(Cl)cc(-c3noc(CN4CCNCC4)n3)cc2CN1Cc1ccc(Cl)cc1 [Example 2, 7-chloro-2-(4-chlorobenzyl)-5-(5-piperazin-1-ylmethyl-[1,2,4]oxadiazol-3-yl)-2,3-dihydroisoindol-1-one] | 6.37 | 176 µM (≈ 80.7 µg/mL)
Cc1cc(-c2noc(CN3CCNCC3)n2)cc2c1C(=O)N(Cc1ccc(Cl)cc1)C2 [Example 4, 2-(4-chlorobenzyl)-7-methyl-5-(5-piperazin-1-ylmethyl-[1,2,4]oxadiazol-3-yl)-2,3-dihydroisoindol-1-one] | 6.50 | 166 µM (≈ 72.7 µg/mL)
Cc1cc(-c2noc(CN3C[C@@H]4C[C@H]3CN4)n2)cc2c1C(=O)N([C@@H](C)c1ccc(Cl)cc1)C2 [Example 7, 2-[(S)-1-(4-Chloro-phenyl)-ethyl]-5-{5-[(1S,4S)-1-(2,5-diaza-bicyclo[2.2.1]hept-2-yl)methyl]-[1,2,4]oxadiazol-3-yl}-7-methyl-2,3-dihydro-isoindol-1-one] | 6.45 | 158 µM (≈ 73.3 µg/mL)
Cc1cc(-c2noc(CN3CCNC[C@@H]3C)n2)cc2c1C(=O)N(Cc1ccc(Cl)cc1)C2 [Example 9, 2-(4-chloro-benzyl)-7-methyl-5-[5-(2-methyl-piperazin-1-ylmethyl)-[1,2,4]oxadiazol-3-yl]-2,3-dihydroisoindol-1-one] | 6.49 | 158 µM (≈ 71.4 µg/mL)
Cc1cc(-c2noc(C(C)N3CCNCC3)n2)cc2c1C(=O)N(Cc1ccc(OC(F)(F)F)cc1)C2 (stereo not shown) [Example 12, 7-Methyl-5-[5-(1-piperazin-1-yl-ethyl)-[1,2,4]oxadiazol-3-yl]-2-(4-trifluoromethoxy-benzyl)-2,3-dihydro-isoindol-1-one] | 6.51 | 182 µM (≈ 91.3 µg/mL)
Cc1cc(-c2noc(C(C)N3CCNCC3)n2)cc2c1C(=O)N(Cc1ccc(Cl)cc1)C2 (stereo not shown) [Example 13, 2-(4-Chloro-benzyl)-7-methyl-5-[5-(1-piperazin-1-yl-ethyl)-[1,2,4]oxadiazol-3-yl]-2,3-dihydro-isoindol-1-one] | 6.55 | 240 µM (≈ 108 µg/mL)
Cc1cc(-c2noc(C(C)N3CCNCC3)n2)cc2c1C(=O)N([C@@H](C)c1ccc(Cl)cc1)C2 (stereo partly drawn) [Example 14, 2-[(S)-1-(4-Chloro-phenyl)-ethyl]-7-methyl-5-[5-(1-piperazin-1-yl-ethyl)-[1,2,4]oxadiazol-3-yl]-2,3-dihydro-isoindol-1-one] | 6.68 | 271 µM (≈ 126 µg/mL)

These reach a higher pEC50 (human mGluR2 receptor). Values come first.

pEC50 (human mGluR2 receptor) | solubility at 24 h [1] | SMILES
6.83 | 111 µM (≈ 54.1 µg/mL) | Cc1cc(-c2noc(CN3CCNCC3)n2)cc2c1C(=O)N(Cc1ccc(OC(F)(F)F)cc1)C2 [Example 3, 7-methyl-5-(5-piperazin-1-ylmethyl-[1,2,4]oxadiazol-3-yl)-2-(4-trifluoro-methoxybenzyl)-2,3-dihydroisoindol-1-one]
7.12 | 141 µM (≈ 70.4 µg/mL) | Cc1cc(-c2noc(CN3C[C@@H]4C[C@H]3CN4)n2)cc2c1C(=O)N(Cc1ccc(OC(F)(F)F)cc1)C2 [Example 5, 5-[5-(2,5-diaza-bicyclo[2.2.1]hept-2-ylmethyl)-[1,2,4]oxadiazol-3-yl]-7-methyl-2-(4-trifluoromethoxybenzyl)-2,3-dihydroisoindol-1-one]
7.32 | 96 µM (≈ 43.4 µg/mL) | Cc1cc(-c2noc(CN3CCNCC3)n2)cc2c1C(=O)N([C@@H](C)c1ccc(Cl)cc1)C2 [Example 6, 2-[(S)-1-(4-Chloro-phenyl)-ethyl]-7-methyl-5-(5-piperazin-1-ylmethyl-[1,2,4]oxadiazol-3-yl)-2,3-dihydro-isoindol-1-one]
6.69 | 228 µM (≈ 103 µg/mL) | Cc1cc(-c2noc(CN3CCNC[C@H]3C)n2)cc2c1C(=O)N(Cc1ccc(Cl)cc1)C2 [Example 8, 2-(4-chloro-benzyl)-7-methyl-5-[5-(2-methyl-piperazin-1-ylmethyl)-[1,2,4]oxadiazol-3-yl]-2,3-dihydroisoindol-1-one]
6.92 | 148 µM (≈ 66.9 µg/mL) | Cc1cc(-c2noc(CN3CCNC(C)C3)n2)cc2c1C(=O)N(Cc1ccc(Cl)cc1)C2 (stereo not shown) [Example 10, 2-(4-chloro-benzyl)-7-methyl-5-[5-(3-methyl-piperazin-1-ylmethyl)-[1,2,4]oxadiazol-3-yl]-2,3-dihydroisoindol-1-one]
6.83 | 230 µM (≈ 123 µg/mL) | CC1(C)CN(Cc2nc(-c3cc(Cl)c4c(c3)CN(Cc3ccc(OC(F)(F)F)cc3)C4=O)no2)CCN1 [Example 11, 7-chloro-5-[5-(3,3-dimethyl-piperazin-1-ylmethyl)-[1,2,4]oxadiazol-3-yl]-2-(4-trifluoro-methoxybenzyl)-2,3-dihydroisoindol-1-one]
